Laboratory results taken from patent US20240174723A1, “STAPLED ANTIMICROBIAL PEPTIDES (STAMPS) AND USES THEREOF” (Lytica Therapeutics, Inc., priority 2021, published 2024).
In brackets after ≈: the same amount, converted by molar mass. Positions of bridges follow the written chain, without caps; N, C: chain ends. Non-standard residues stand in square brackets, D forms with d. Residues, ends and D or L forms follow the SMILES beside them. S5 = C=CCCC[C@](C)(N)C(=O)O; PEG1 = NCCOCCC(=O)O

What was measured:
P. aeruginosa = type: cell-based, Pseudomonas aeruginosa
Procedure, shortened: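 Broth microdilution adapted from CLSI in MHB or cation-adjusted MHB; log-phase P. aeruginosa at 5×10^5 CFU/ml final with serially diluted stapled peptides. Incubated 20-24 h at 37 °C; MIC is the lowest concentration without visible growth.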

S. aureus = type: cell-based, Staphylococcus aureus
Procedure, shortened: (§1)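 StAMP peptides were tested by CLSI-adapted broth microdilution in MHB or cation-adjusted MHB II, final inoculum 5×10^5 CFU/ml from log-phase cultures. After 20-24 h at 37° C, MIC was taken as the lowest peptide concentration without visible growth.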

in vitro [1] = type: cell-based; details: human, Inhibitory Concentration at 50% Cytotoxicity (IC50) Human Liver Cells (HepG2)
Procedure, shortened: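 HepG2 cells in EMEM with 10% FBS, allowed 4 h to attach, then exposed to serial dilutions of StAMPs (from a 5 mg/mL water stock) or vehicle. After 48 h at 37 °C, viability read by CellTiter-Glo luminescence.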

K. pneumoniae = type: cell-based, Klebsiella pneumoniae
Procedure, shortened: as §1

E. coli = type: cell-based, Escherichia coli
Procedure, shortened: as §1

in vitro [2] = type: cell-based; details: human
Procedure, shortened: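 RPTEC or HepG2 cells plated overnight, given fresh media, then serial StAMP dilutions (from 5 mg/mL water stock) or vehicle at 37 °C. Cytotoxicity read as LDH release into media, absorbance 490 nm; renal toxicity after 90 min, liver toxicity after 48 h incubation.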

A. baumannii = type: cell-based, Acinetobacter baumannii
Procedure, shortened: as §1

SMILES | Minimum Inhibitory Concentration (MIC) P. aeruginosa (P. aeruginosa) [µg/mL] | Minimum Inhibitory Concentration (MIC) S. aureus (S. aureus) [µg/mL] | IC50 at 48 hours (in vitro [1]) [µg/mL] | Minimum Inhibitory Concentration (MIC) K. pneumoniae (K. pneumoniae) [µg/mL] | Minimum Inhibitory Concentration (MIC) E. coli (E. coli) [µg/mL] | IC50 at 90 min (in vitro [2]) [µg/mL] | Minimum Inhibitory Concentration (MIC) A. baumannii (A. baumannii) [µg/mL]
CC(C)[C@@H]1NC(=O)[C@@](C)(NC(=O)[C@H](Cc2c[nH]c3ccccc23)NC(=O)[C@H](CCCCN)NC(=O)CNC(=O)[C@H](Cc2ccccc2)NC(=O)[C@H](CCCCN)NC(=O)[C@H](CCCCN)NC(=O)[C@H](CCCCN)NC(=O)[C@H](CO)NC(=O)[C@H](Cc2c[nH]cn2)NC(=O)[C@]2(C)CCCC=CCCC[C@](C)(NC(=O)CN)C(=O)NCC(=O)N[C@@H](CCCCN)C(=O)N[C@@H](Cc3ccccc3)C(=O)N2)CCCC=CCCC[C@@](C)(C(=O)N[C@@H](C)C(=O)N[C@@H](CCCCN)C(=O)N[C@@H](CCCCN)C(N)=O)NC(=O)[C@H](CCC(=O)O)NC(=O)CNC1=O [compound 63] (H-G[S5]GKF[S5]HSKKKFGKW[S5]VGE[S5]AKK-NH2; staple 2-6, 16-20) | 6 | 16 | 60 (≈ 22.7 µM) | 8 | 4 | 32 (≈ 12.1 µM) | 4
CC(C)[C@@H]1NC(=O)[C@@](C)(NC(=O)[C@H](C)NC(=O)[C@H](CCCCN)NC(=O)CNC(=O)[C@H](Cc2ccccc2)NC(=O)[C@H](CCCCN)NC(=O)[C@H](CCCCN)NC(=O)[C@H](CCCCN)NC(=O)[C@H](CCCCN)NC(=O)[C@H](CCCCN)NC(=O)[C@]2(C)CCCC=CCCC[C@](C)(NC(=O)CN)C(=O)NCC(=O)N[C@@H](CCCCN)C(=O)N[C@@H](Cc3ccccc3)C(=O)N2)CCCC=CCCC[C@@](C)(C(=O)N[C@@H](C)C(=O)N[C@@H](CCCCN)C(=O)N[C@@H](CCCCN)C(=O)NCCOCCC(N)=O)NC(=O)[C@H](CCC(=O)O)NC(=O)CNC1=O [compound 71] (H-G[S5]GKF[S5]KKKKKFGKA[S5]VGE[S5]AKK[PEG1]-NH2; staple 2-6, 16-20) | 4 | >64 | 247 (≈ 92.2 µM) | 4 | 2 | 200 (≈ 74.6 µM) | 2
CC(C)[C@@H]1NC(=O)[C@@](C)(NC(=O)[C@H](C)NC(=O)[C@H](CCCCN)NC(=O)CNC(=O)[C@H](Cc2ccccc2)NC(=O)[C@H](CCCCN)NC(=O)[C@H](CCCCN)NC(=O)[C@H](CCCCN)NC(=O)[C@H](CO)NC(=O)[C@H](Cc2c[nH]cn2)NC(=O)[C@]2(C)CCCC=CCCC[C@](C)(NC(=O)CN)C(=O)NCC(=O)N[C@@H](CCCCN)C(=O)N[C@@H](Cc3ccccc3)C(=O)N2)CCCC=CCCC[C@@](C)(C(=O)N[C@@H](C)C(=O)N[C@@H](CCCCN)C(=O)N[C@@H](CCCCN)C(N)=O)NC(=O)[C@H](CCC(=O)O)NC(=O)CNC1=O [compound 1] (H-G[S5]GKF[S5]HSKKKFGKA[S5]VGE[S5]AKK-NH2; staple 2-6, 16-20) | 8 | >64 | 391 (≈ 154 µM) | 32 | 2 | 294 (≈ 116 µM) | 2
CC(C)[C@@H]1NC(=O)[C@H](C(C)C)NC(=O)[C@@](C)(NC(=O)[C@H](C)NC(=O)[C@H](CCCCN)NC(=O)CNC(=O)[C@H](Cc2ccccc2)NC(=O)[C@H](CCCCN)NC(=O)[C@H](CCCCN)NC(=O)[C@H](CCCCN)NC(=O)[C@H](CCCCN)NC(=O)[C@H](Cc2c[nH]cn2)NC(=O)[C@]2(C)CCCC=CCCC[C@](C)(NC(=O)CN)C(=O)NCC(=O)N[C@@H](CCCCN)C(=O)N[C@@H](Cc3ccccc3)C(=O)N2)CCCC=CCCC[C@@](C)(C(=O)N[C@@H](C)C(=O)N[C@@H](CCCCN)C(=O)N[C@@H](CCCCN)C(N)=O)NC(=O)[C@H](CCC(=O)O)NC1=O [compound 21] (H-G[S5]GKF[S5]HKKKKFGKA[S5]VVE[S5]AKK-NH2; staple 2-6, 16-20) | 4 | >64 | 208 (≈ 79.5 µM) | 4 | 2 | 251 (≈ 96 µM) | 2
CC(C)[C@@H]1NC(=O)[C@@](C)(NC(=O)[C@H](C)NC(=O)[C@H](CCCCN)NC(=O)CNC(=O)[C@H](Cc2ccccc2)NC(=O)[C@H](CCCCN)NC(=O)[C@H](CCCCN)NC(=O)[C@H](CCCCN)NC(=O)[C@H](CCCCN)NC(=O)[C@H](CCCCN)NC(=O)[C@]2(C)CCCC=CCCC[C@](C)(NC(=O)CN)C(=O)NCC(=O)N[C@@H](CCCCN)C(=O)N[C@@H](Cc3ccccc3)C(=O)N2)CCCC=CCCC[C@@](C)(C(=O)N[C@@H](C)C(=O)N[C@@H](CCCCN)C(=O)N[C@@H](CCCCN)C(=O)NCC(=O)NCC(=O)N[C@@H](CCC(=O)O)C(N)=O)NC(=O)[C@H](CCC(=O)O)NC(=O)CNC1=O [compound 26] (H-G[S5]GKF[S5]KKKKKFGKA[S5]VGE[S5]AKKGGE-NH2; staple 2-6, 16-20) | 4 | >64 | 354 (≈ 126 µM) | 32 | 4 | 366 (≈ 130 µM) | 4
CC(C)[C@@H]1NC(=O)[C@@](C)(NC(=O)[C@H](C)NC(=O)[C@H](CCCCN)NC(=O)CNC(=O)[C@H](Cc2ccccc2)NC(=O)[C@H](CCCCN)NC(=O)[C@H](CCCCN)NC(=O)[C@H](CCCCN)NC(=O)[C@H](CC(N)=O)NC(=O)[C@H](Cc2c[nH]cn2)NC(=O)[C@]2(C)CCCC=CCCC[C@](C)(NC(=O)CN)C(=O)NCC(=O)N[C@@H](CCCCN)C(=O)N[C@@H](Cc3ccccc3)C(=O)N2)CCCC=CCCC[C@@](C)(C(=O)N[C@@H](C)C(=O)N[C@@H](CCCCN)C(=O)N[C@@H](CCCCN)C(N)=O)NC(=O)[C@H](CCC(=O)O)NC(=O)CNC1=O [compound 6] (H-G[S5]GKF[S5]HNKKKFGKA[S5]VGE[S5]AKK-NH2; staple 2-6, 16-20) | 8 | >64 | > 200 | >64 | 4 | > 200 | 4
CC(C)[C@@H]1NC(=O)[C@@](C)(NC(=O)[C@H](C)NC(=O)[C@H](CCCCN)NC(=O)CNC(=O)[C@H](Cc2ccccc2)NC(=O)[C@H](CCCCN)NC(=O)[C@H](CCCCN)NC(=O)[C@H](CCCCN)NC(=O)[C@H](CO)NC(=O)[C@H](Cc2c[nH]cn2)NC(=O)[C@]2(C)CCCC=CCCC[C@](C)(NC(=O)CN)C(=O)NCC(=O)N[C@@H](CCCCN)C(=O)N[C@@H](Cc3c[nH]c4ccccc34)C(=O)N2)CCCC=CCCC[C@@](C)(C(=O)N[C@@H](C)C(=O)N[C@@H](CCCCN)C(=O)N[C@@H](CCCCN)C(N)=O)NC(=O)[C@H](CCC(=O)O)NC(=O)CNC1=O [compound 59] (H-G[S5]GKW[S5]HSKKKFGKA[S5]VGE[S5]AKK-NH2; staple 2-6, 16-20) | 8 | >64 | > 200 | 64 | 4 | > 200 | 4
CC(C)[C@@H]1NC(=O)[C@@](C)(NC(=O)[C@H](C)NC(=O)[C@H](CCCCN)NC(=O)CNC(=O)[C@H](Cc2ccccc2)NC(=O)[C@H](CCCCN)NC(=O)[C@H](CCCCN)NC(=O)[C@H](CCCCN)NC(=O)[C@H](CCCCN)NC(=O)[C@H](Cc2c[nH]cn2)NC(=O)[C@]2(C)CCCC=CCCC[C@](C)(NC(=O)CN)C(=O)NCC(=O)N[C@@H](CCCCN)C(=O)N[C@@H](Cc3ccccc3)C(=O)N2)CCCC=CCCC[C@@](C)(C(=O)N[C@@H](C)C(=O)N[C@@H](CCCCN)C(=O)N[C@@H](CCCCN)C(N)=O)NC(=O)[C@H](CCC(=O)O)NC(=O)[C@H](Cc2ccccc2)NC1=O [compound 22] (H-G[S5]GKF[S5]HKKKKFGKA[S5]VFE[S5]AKK-NH2; staple 2-6, 16-20) | 4 | >64 | > 200 | 4 | 2 | 202 (≈ 75.8 µM) | 3
